Data from PubChem BioAssay AID1259407 (Chemical Carcinogenesis Research Information System (CCRIS), 2018).
Activity calls are given as the source filed them. How the calls were made is not given here.

System: CCRIS mutagenicity, Ames/micronucleus/aberration tests
Assay: CCRIS mutagenicity studies

## Cc1ccc(N)cc1N
End Point: IN VITRO CHROMOSOMAL ABERRATIONS, Test System: CHL CELLS, Metabolic Activation: NONE
  mutagenic call: active; positive (structural changes)
End Point: IN VITRO CHROMOSOMAL ABERRATIONS, Test System: CHL CELLS, Metabolic Activation: RAT, LIVER, S-9, SODIUM PHENOBARBITAL AND 5,6-BENZOFLAVONE
  mutagenic call: active; positive (structural changes)
End Point: IN VITRO CHROMOSOMAL ABERRATIONS, Test System: CHO-LB CELLS, Metabolic Activation: NONE
  mutagenic call: active; positive
End Point: IN VITRO CHROMOSOMAL ABERRATIONS, Test System: CHO-LB CELLS, Metabolic Activation: RAT, LIVER, S-9, AROCLOR 1254
  mutagenic call: active; positive
End Point: IN VITRO CHROMOSOMAL ABERRATIONS, Test System: CHO-WBL CELLS, Metabolic Activation: NONE
  mutagenic call: active; positive
End Point: IN VITRO MICRONUCLEUS, Test System: HUMAN HEPATOMA HEP G2 CELLS, Metabolic Activation: NONE
  mutagenic call: active; positive
Test System: AMES SALMONELLA TYPHIMURIUM, Strain/Indicator: TA97, Metabolic Activation: RAT, LIVER, S-9, AROCLOR 1254 (4 OR 10%), Method: STANDARD PLATE
  mutagenic call: inactive; negative
Test System: AMES SALMONELLA TYPHIMURIUM, Strain/Indicator: TA98(1,8-DNP6), Metabolic Activation: PLANT CELLS, Method: PREINCUBATION
  mutagenic call: inactive; negative
Test System: AMES SALMONELLA TYPHIMURIUM, Strain/Indicator: TA98(1,8-DNP6), Metabolic Activation: RAT, LIVER, S-9, AROCLOR 1254, Method: STANDARD PLATE
  mutagenic call: inactive; negative
Test System: AMES SALMONELLA TYPHIMURIUM, Strain/Indicator: TA98(PYG219), Metabolic Activation: RAT, LIVER, S-9, AROCLOR 1254, Method: STANDARD PLATE
  mutagenic call: active; positive
Test System: AMES SALMONELLA TYPHIMURIUM, Strain/Indicator: TA98, Metabolic Activation: MOUSE, LIVER, S-9, PHENOBARBITONE AND BETA-NAPHTHOFLAVONE, Method: STANDARD PLATE
  mutagenic call: active; positive
Test System: AMES SALMONELLA TYPHIMURIUM, Strain/Indicator: TA98, Metabolic Activation: NONE, Method: MICROSUSPENSION
  mutagenic call: inactive; negative
Test System: AMES SALMONELLA TYPHIMURIUM, Strain/Indicator: TA98, Metabolic Activation: NONE, Method: SUSPENSION/PLATE
  mutagenic call: inactive; negative
Test System: AMES SALMONELLA TYPHIMURIUM, Strain/Indicator: TA98, Metabolic Activation: PLANT CELLS, Method: PREINCUBATION
  mutagenic call: inactive; negative
Test System: AMES SALMONELLA TYPHIMURIUM, Strain/Indicator: TA98, Metabolic Activation: RAT LIVER CYTOSOL, AROCLOR 1254, Method: PREINCUBATION
  mutagenic call: inactive; negative
Test System: AMES SALMONELLA TYPHIMURIUM, Strain/Indicator: TA98, Metabolic Activation: RAT LIVER MICROSOMES, AROCLOR 1254, Method: PREINCUBATION
  mutagenic call: active; positive
Test System: AMES SALMONELLA TYPHIMURIUM, Strain/Indicator: TA98, Metabolic Activation: RAT LIVER S-9, AROCLOR 1254, Method: MICROSUSPENSION
  mutagenic call: active; positive
Test System: AMES SALMONELLA TYPHIMURIUM, Strain/Indicator: TA98, Metabolic Activation: RAT LIVER S-9, PHENOBARBITAL AND BETA-NAPHTHOFLAVONE, Method: PREINCUBATION
  mutagenic call: active; positive
Test System: AMES SALMONELLA TYPHIMURIUM, Strain/Indicator: TA98, Metabolic Activation: RAT, LIVER, HEPATOCYTES, AROCLOR 1254, Method: STANDARD PLATE
  mutagenic call: active; positive
Test System: AMES SALMONELLA TYPHIMURIUM, Strain/Indicator: TA98, Metabolic Activation: RAT, LIVER, MICROSOMES, AROCLOR 1254, Method: PREINCUBATION
  mutagenic call: active; positive
Test System: AMES SALMONELLA TYPHIMURIUM, Strain/Indicator: TA98, Metabolic Activation: RAT, LIVER, MICROSOMES, BENZO[A]PYRENE, Method: PREINCUBATION
  mutagenic call: active; positive
Test System: AMES SALMONELLA TYPHIMURIUM, Strain/Indicator: TA98, Metabolic Activation: RAT, LIVER, MICROSOMES, CLOFIBRATE, Method: PREINCUBATION
  mutagenic call: inactive; negative
Test System: AMES SALMONELLA TYPHIMURIUM, Strain/Indicator: TA98, Metabolic Activation: RAT, LIVER, MICROSOMES, DEXAMETHASONE, Method: PREINCUBATION
  mutagenic call: inactive; negative
Test System: AMES SALMONELLA TYPHIMURIUM, Strain/Indicator: TA98, Metabolic Activation: RAT, LIVER, MICROSOMES, DIAMINOTOLUENE, Method: PREINCUBATION
  mutagenic call: active; positive
Test System: AMES SALMONELLA TYPHIMURIUM, Strain/Indicator: TA98, Metabolic Activation: RAT, LIVER, MICROSOMES, ISONIAZID, Method: PREINCUBATION
  mutagenic call: inactive; negative
Test System: AMES SALMONELLA TYPHIMURIUM, Strain/Indicator: TA98, Metabolic Activation: RAT, LIVER, MICROSOMES, PHENOBARBITAL, Method: PREINCUBATION
  mutagenic call: inactive; negative
Test System: AMES SALMONELLA TYPHIMURIUM, Strain/Indicator: TA98, Metabolic Activation: RAT, LIVER, MICROSOMES, Method: PREINCUBATION
  mutagenic call: inactive; negative
Test System: AMES SALMONELLA TYPHIMURIUM, Strain/Indicator: TA98, Metabolic Activation: RAT, LIVER, S-9, AROCLOR 1254, Method: STANDARD PLATE
  mutagenic call: active; positive
Test System: AMES SALMONELLA TYPHIMURIUM, Strain/Indicator: TA98, Metabolic Activation: RAT, LIVER, S-9, AROCLOR, Method: PREINCUBATION
  mutagenic call: active; positive
Test System: AMES SALMONELLA TYPHIMURIUM, Strain/Indicator: TA98, Metabolic Activation: RAT, LIVER, S-9, PCB, Method: PREINCUBATION
  mutagenic call: active; positive
Test System: AMES SALMONELLA TYPHIMURIUM, Strain/Indicator: TA98, Metabolic Activation: RAT, LIVER, S-9, PHENOBARBITAL AND 5,6-BENZOFLAVONE, Method: PREINCUBATION
  mutagenic call: active; positive
Test System: AMES SALMONELLA TYPHIMURIUM, Strain/Indicator: TA98, Metabolic Activation: RAT, LIVER, S-9, PHENOBARBITAL AND 5,6-BENZOFLAVONE, Method: SUSPENSION/PLATE
  mutagenic call: active; positive
Test System: AMES SALMONELLA TYPHIMURIUM, Strain/Indicator: TA100, Metabolic Activation: NONE, Method: MICROSUSPENSION
  mutagenic call: inactive; negative
Test System: AMES SALMONELLA TYPHIMURIUM, Strain/Indicator: TA100, Metabolic Activation: NONE, Method: PREINCUBATION
  mutagenic call: inactive; negative
Test System: AMES SALMONELLA TYPHIMURIUM, Strain/Indicator: TA100, Metabolic Activation: NONE, Method: SUSPENSION/PLATE
  mutagenic call: inactive; negative
Test System: AMES SALMONELLA TYPHIMURIUM, Strain/Indicator: TA100, Metabolic Activation: RAT LIVER S-9, AROCLOR 1254, Method: MICROSUSPENSION
  mutagenic call: inactive; negative
Test System: AMES SALMONELLA TYPHIMURIUM, Strain/Indicator: TA100, Metabolic Activation: RAT LIVER S-9, PHENOBARBITAL AND BETA-NAPHTHOFLAVONE, Method: PREINCUBATION
  mutagenic call: active; positive
Test System: AMES SALMONELLA TYPHIMURIUM, Strain/Indicator: TA100, Metabolic Activation: RAT, LIVER, S-9, AROCLOR 1254, Method: STANDARD PLATE
  mutagenic call: active; positive
Test System: AMES SALMONELLA TYPHIMURIUM, Strain/Indicator: TA100, Metabolic Activation: RAT, LIVER, S-9, PCB, Method: PREINCUBATION
  mutagenic call: active; positive
Test System: AMES SALMONELLA TYPHIMURIUM, Strain/Indicator: TA100, Metabolic Activation: RAT, LIVER, S-9, PHENOBARBITAL AND 5,6-BENZOFLAVONE, Method: PREINCUBATION
  mutagenic call: active; positive
Test System: AMES SALMONELLA TYPHIMURIUM, Strain/Indicator: TA100, Metabolic Activation: RAT, LIVER, S-9, PHENOBARBITAL AND 5,6-BENZOFLAVONE, Method: SUSPENSION/PLATE
  mutagenic call: active; positive
Test System: AMES SALMONELLA TYPHIMURIUM, Strain/Indicator: TA1535, Metabolic Activation: NONE, Method: PREINCUBATION
  mutagenic call: inactive; negative
Test System: AMES SALMONELLA TYPHIMURIUM, Strain/Indicator: TA1535, Metabolic Activation: RAT LIVER S-9, PHENOBARBITAL AND BETA-NAPHTHOFLAVONE, Method: PREINCUBATION
  mutagenic call: inactive; negative
Test System: AMES SALMONELLA TYPHIMURIUM, Strain/Indicator: TA1537, Metabolic Activation: NONE, Method: PREINCUBATION
  mutagenic call: inactive; negative
Test System: AMES SALMONELLA TYPHIMURIUM, Strain/Indicator: TA1537, Metabolic Activation: RAT LIVER S-9, PHENOBARBITAL AND BETA-NAPHTHOFLAVONE, Method: PREINCUBATION
  mutagenic call: active; positive
Test System: AMES SALMONELLA TYPHIMURIUM, Strain/Indicator: TA1537, Metabolic Activation: RAT, LIVER, S-9, AROCLOR 1254 (4 OR 10%), Method: STANDARD PLATE
  mutagenic call: inactive; negative
Test System: AMES SALMONELLA TYPHIMURIUM, Strain/Indicator: TA1538, Metabolic Activation: RAT, LIVER, S-9, AROCLOR 1254 (4 OR 10%), Method: STANDARD PLATE
  mutagenic call: active; positive
Test System: AMES SALMONELLA TYPHIMURIUM, Strain/Indicator: TA1538, Metabolic Activation: RAT, LIVER, S-9, AROCLOR 1254, Method: STANDARD PLATE
  mutagenic call: active; positive
Test System: AMES SALMONELLA TYPHIMURIUM, Strain/Indicator: YG1024, Metabolic Activation: PLANT CELLS, Method: PREINCUBATION
  mutagenic call: active; positive
Test System: CHINESE HAMSTER V-79, Strain/Indicator: V-79/6-THIOGUANINE, Metabolic Activation: NONE, Method: SUSPENSION/PLATE
  mutagenic call: inactive; negative
Test System: CHINESE HAMSTER V-79, Strain/Indicator: V-79/6-THIOGUANINE, Metabolic Activation: RAT, LIVER, S-9, PHENOBARBITAL AND BETA-NAPHTHOFLAVONE, Method: SUSPENSION/PLATE
  mutagenic call: inactive; negative
Test System: E.COLI, Strain/Indicator: WP2UVRA, Metabolic Activation: NONE, Method: PREINCUBATION
  mutagenic call: inactive; negative
Test System: E.COLI, Strain/Indicator: WP2UVRA, Metabolic Activation: RAT LIVER S-9, PHENOBARBITAL AND BETA-NAPHTHOFLAVONE, Method: PREINCUBATION
  mutagenic call: inactive; negative
Test System: UDS HUMAN HEPATOMA HEPG2 CELLS, Strain/Indicator: THY INCORP, Metabolic Activation: NONE, Method: AUTORADIOGRAPHY
  mutagenic call: active; positive
Test System: UDS RAT HEPATOCYTES, Strain/Indicator: BROMODEOXYURIDINE INCORP, Metabolic Activation: NONE, Method: FLOW CYTOMETRIC ANALYSIS
  mutagenic call: active; positive
Test System: UDS RAT HEPATOCYTES, Strain/Indicator: THY INCORP, Metabolic Activation: NONE, Method: AUTORADIOGRAPHY
  mutagenic call: active; positive
